The source of these data is US10517889B2, “Modulators of SMAD7 expression” (Ionis Pharmaceuticals, Inc., priority 2017, dated 2019).

Strand notation (5' to 3'): a small letter for the sugar, then the base; units joined by * are phosphorothioate-linked, units joined directly phosphodiester-linked; [ ] holds rarer units or linkages, { } end groups; capitals alone tell only the bases. k = constrained ethyl (cEt); [5mC] = 5-methylcytosine; d = 2'-deoxy (DNA)

The test system of one data set is human SMAD7 mRNA. As to the kind of experiment: Antisense inhibition of human SMAD7 mRNA expression in Hep3B cells by 3-10-3 cEt gapmers, 10,000 nM, electroporation (Example 2). The settings on record: Hep3B cells, electroporation with 10,000 nM antisense oligonucleotide, approximately 24 hours, SMAD7 mRNA by RT-PCR (RTS5062), relative to untreated control cells. In kind it is cell-based. In short, it runs like this: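 qRT-PCR (RTS5062) of SMAD7 mRNA, normalised to RIBOGREEN total RNA, gave percent inhibition relative to untreated controls. Hep3B cells at 20,000 per well received 10,000 nM oligonucleotide by electroporation, with ~24 h treatment.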
For the substance “830014 (antisense kG*kG*kT*dG*d[5mC]*d[5mC]*dA*dG*dT*d[5mC]*dT*d[5mC]*dA*kA*kA*kT) [compound 830014]”, the “% Inhibition” value was 22%.
On the same count and under the same terms, as for “830015 (antisense kG*k[5mC]*kT*dG*dG*dT*dG*d[5mC]*d[5mC]*dA*dG*dT*d[5mC]*kT*k[5mC]*kA) [compound 830015]”, the figure is 56%.
On the same count and under the same terms, as for “830016 (antisense kG*kG*kT*dG*d[5mC]*d[5mC]*d[5mC]*dA*dA*d[5mC]*d[5mC]*d[5mC]*dT*kT*k[5mC]*kA) [compound 830016]”, the figure is 32%; as for “830017 (antisense kA*kG*kG*d[5mC]*dG*dG*dA*dA*dG*dG*dA*d[5mC]*dT*kT*kG*k[5mC]) [compound 830017]”, 30%; as for “830018 (antisense k[5mC]*k[5mC]*k[5mC]*dA*dA*d[5mC]*dA*dG*d[5mC]*d[5mC]*dA*dA*dA*kA*k[5mC]*kG) [compound 830018]”, 10%.
The same measure, in the same setting: to “830019 (antisense kA*kG*kG*d[5mC]*d[5mC]*d[5mC]*dA*dA*d[5mC]*dA*dG*d[5mC]*d[5mC]*kA*kA*kA) [compound 830019]” belongs 16%; to “830020 (antisense kG*kA*kA*dA*dG*dG*d[5mC]*d[5mC]*d[5mC]*dA*dA*d[5mC]*dA*kG*k[5mC]*k[5mC]) [compound 830020]”, 23%; to “830021 (antisense kG*kG*kG*dA*dA*dA*dG*dG*d[5mC]*d[5mC]*d[5mC]*dA*dA*k[5mC]*kA*kG) [compound 830021]”, 42%.
Regarding “830022 (antisense kG*kG*k[5mC]*dT*dG*d[5mC]*dA*dG*dA*dG*dT*dA*dT*kG*kG*kG) [compound 830022]”, the “% Inhibition” value is reported as 59%.
On to “830023 (antisense kT*k[5mC]*kA*d[5mC]*dA*dT*dG*d[5mC]*dT*dT*dT*dG*d[5mC]*kG*kG*kG) [compound 830023]”, for which the “% Inhibition” value is recorded as 57%.
On the same count and under the same terms, to “830024 (antisense kT*kG*kT*dA*dA*dA*dT*d[5mC]*dG*dA*dA*dA*dG*k[5mC]*kA*kA) [compound 830024]” belongs 40%; to “830026 (antisense kT*kT*kT*dT*dG*dT*dA*dA*dA*dT*d[5mC]*dG*dA*kA*kA*kG) [compound 830026]”, 0%; to “830029 (antisense kT*k[5mC]*kA*d[5mC]*dT*d[5mC]*d[5mC]*dA*d[5mC]*dT*d[5mC]*dA*d[5mC]*k[5mC]*kG*kA) [compound 830029]”, 56%.
On the same count and under the same terms, to “830030 (antisense kA*k[5mC]*k[5mC]*dT*dA*dA*dT*dG*dT*d[5mC]*dA*dA*d[5mC]*kA*k[5mC]*kT) [compound 830030]” belongs 36%; to “830031 (antisense kT*kA*k[5mC]*d[5mC]*dT*dA*dA*dT*dG*dT*d[5mC]*dA*dA*k[5mC]*kA*k[5mC]) [compound 830031]”, 44%.
On the same count and under the same terms, to “830032 (antisense kG*k[5mC]*kT*dA*d[5mC]*d[5mC]*dT*dA*dA*dT*dG*dT*d[5mC]*kA*kA*k[5mC]) [compound 830032]” belongs 35%; to “830033 (antisense kT*k[5mC]*k[5mC]*d[5mC]*d[5mC]*d[5mC]*dT*dT*dG*dG*dA*dA*dA*kT*kG*kG) [compound 830033]”, 28%; to “830034 (antisense kG*kG*k[5mC]*dT*dG*dA*dT*d[5mC]*dT*dG*dG*dA*dG*kA*kA*k[5mC]) [compound 830034]”, 30%.
“830035 (antisense kA*kT*kT*dG*dG*d[5mC]*dT*dG*dA*dT*d[5mC]*dT*dG*kG*kA*kG) [compound 830035]”: the “% Inhibition” value is recorded as 48%.
As to “830036 (antisense kT*kA*kT*dT*dG*dG*d[5mC]*dT*dG*dA*dT*d[5mC]*dT*kG*kG*kA) [compound 830036]”, the “% Inhibition” value turned out to be 52%.
Turning to “830038 (antisense k[5mC]*k[5mC]*kT*dA*dT*dT*dG*dG*d[5mC]*dT*dG*dA*dT*k[5mC]*kT*kG) [compound 830038]”, the “% Inhibition” value is listed as 50%.
The same measure, in the same setting: to “830039 (antisense kT*kT*k[5mC]*d[5mC]*dT*dA*dT*dT*dG*dG*d[5mC]*dT*dG*kA*kT*k[5mC]) [compound 830039]” belongs 51%; to “830040 (antisense k[5mC]*kA*k[5mC]*dT*dT*d[5mC]*d[5mC]*dT*dA*dT*dT*dG*dG*k[5mC]*kT*kG) [compound 830040]”, 44%; to “830041 (antisense kT*k[5mC]*kA*d[5mC]*dT*dT*d[5mC]*d[5mC]*dT*dA*dT*dT*dG*kG*k[5mC]*kT) [compound 830041]”, 56%.
On the same count and under the same terms, to “830042 (antisense k[5mC]*kA*kG*dG*dT*dT*dA*dA*dT*d[5mC]*dA*d[5mC]*dT*kT*k[5mC]*k[5mC]) [compound 830042]” belongs 64%; to “830043 (kT*kT*kG*dG*d[5mC]*dA*dG*dG*dT*dT*dA*dA*dT*k[5mC]*kA*k[5mC]; antisense) [compound 830043]”, 45%.
Still for that read-out and setting: to “830045 (k[5mC]*k[5mC]*kG*dA*dT*dT*dG*dG*d[5mC]*dA*dG*dG*dT*kT*kA*kA; antisense) [compound 830045]” belongs 47%; to “830046 (kT*k[5mC]*k[5mC]*dG*dA*dT*dT*dG*dG*d[5mC]*dA*dG*dG*kT*kT*kA; antisense) [compound 830046]”, 60%; to “830047 (kT*kT*k[5mC]*d[5mC]*dG*dA*dT*dT*dG*dG*d[5mC]*dA*dG*kG*kT*kT; antisense) [compound 830047]”, 42%.
On to “830048 (kT*kT*kT*d[5mC]*d[5mC]*dG*dA*dT*dT*dG*dG*d[5mC]*dA*kG*kG*kT; antisense) [compound 830048]”, for which the “% Inhibition” value came out at 57%.
For the substance “830049 (kG*kT*kT*dT*d[5mC]*d[5mC]*dG*dA*dT*dT*dG*dG*d[5mC]*kA*kG*kG; antisense) [compound 830049]”, the “% Inhibition” value is 43%.
For the substance “830050 (kA*kG*kT*dT*dT*d[5mC]*d[5mC]*dG*dA*dT*dT*dG*dG*k[5mC]*kA*kG; antisense) [compound 830050]”, the “% Inhibition” value came to 39%.
Still for that read-out and setting: to “830052 (kG*kA*kG*dT*dA*dA*d[5mC]*d[5mC]*dA*dG*d[5mC]*dT*dG*kT*k[5mC]*kT; antisense) [compound 830052]” belongs 35%.
Same read-out and setting: as for “830054 (kT*kG*kG*dG*dT*dG*dA*dG*dT*dA*dA*d[5mC]*d[5mC]*kA*kG*k[5mC]; antisense) [compound 830054]”, the figure is 48%; as for “830055 (kT*kT*kG*dG*dG*dT*dG*dA*dG*dT*dA*dA*d[5mC]*k[5mC]*kA*kG; antisense) [compound 830055]”, 57%.
On the same count and under the same terms, to “830056 (kG*kT*kT*dT*dT*dG*dG*dG*dT*dG*dA*dG*dT*kA*kA*k[5mC]; antisense) [compound 830056]” belongs 40%; to “830057 (k[5mC]*kG*kT*dT*dT*dT*dG*dG*dG*dT*dG*dA*dG*kT*kA*kA; antisense) [compound 830057]”, 42%.
On to “830058 (kG*kG*kT*dA*dG*dG*d[5mC]*dA*d[5mC]*dA*dT*d[5mC]*dA*kT*k[5mC]*kA; antisense) [compound 830058]”, for which the “% Inhibition” value is 22%.
Still for that read-out and setting: to “830059 (kG*kG*kG*d[5mC]*d[5mC]*dA*d[5mC]*d[5mC]*d[5mC]*dA*dG*dT*dG*kA*kG*k[5mC]; antisense) [compound 830059]” belongs 22%.
On the same count and under the same terms, as for “830060 (kT*kA*k[5mC]*d[5mC]*dA*d[5mC]*d[5mC]*d[5mC]*d[5mC]*dT*dG*dT*dG*kA*kA*kG; antisense) [compound 830060]”, the figure is 8%; as for “830061 (k[5mC]*kT*kA*d[5mC]*d[5mC]*dA*d[5mC]*d[5mC]*d[5mC]*d[5mC]*dT*dG*dT*kG*kA*kA; antisense) [compound 830061]”, 4%.
As to “830062 (k[5mC]*k[5mC]*kT*dA*d[5mC]*d[5mC]*dA*d[5mC]*d[5mC]*d[5mC]*d[5mC]*dT*dG*kT*kG*kA; antisense) [compound 830062]”, the “% Inhibition” value came to 17%.

Staying with this data set, now noted: SMAD7 mRNA, Hep3B cells, electroporation with 10,000 nM antisense oligonucleotide, approximately 24 hours, primer probe set RTS5062, relative to untreated control cells.
Consider “830005 (antisense k[5mC]*kT*k[5mC]*dA*d[5mC]*d[5mC]*dA*dG*dT*dT*dG*dG*dT*kT*kT*kG) [compound 830005]”, for which the “% Inhibition” value is on record as 13%.
With “830006 (antisense kA*k[5mC]*kT*d[5mC]*dA*d[5mC]*d[5mC]*dA*dG*dT*dT*dG*dG*kT*kT*kT) [compound 830006]”, the “% Inhibition” value is 0%.
Take “830007 (antisense k[5mC]*kT*kA*d[5mC]*dT*d[5mC]*dA*d[5mC]*d[5mC]*dA*dG*dT*dT*kG*kG*kT) [compound 830007]”: the “% Inhibition” value came out at 0%.
On the same count and under the same terms, to “830008 (antisense kT*kA*kG*dA*dG*dG*d[5mC]*dT*d[5mC]*dT*dA*dT*dT*kT*k[5mC]*kT) [compound 830008]” belongs 0%; to “830009 (antisense kG*kT*kG*dT*dT*dA*dA*dA*dG*d[5mC]*dT*dG*dA*kG*k[5mC]*k[5mC]) [compound 830009]”, 52%; to “830011 (antisense k[5mC]*k[5mC]*kA*dG*dT*d[5mC]*dT*d[5mC]*dA*dA*dA*dT*dG*kG*kG*k[5mC]) [compound 830011]”, 25%.
Same read-out and setting: as for “830012 (antisense kG*k[5mC]*k[5mC]*dA*dG*dT*d[5mC]*dT*d[5mC]*dA*dA*dA*dT*kG*kG*kG) [compound 830012]”, the figure is 37%; as for “830013 (antisense kG*kT*kG*d[5mC]*d[5mC]*dA*dG*dT*d[5mC]*dT*d[5mC]*dA*dA*kA*kT*kG) [compound 830013]”, 55%.

The term % Inhibition denotes how much of the control response was suppressed. The low end stands for a response near the control, the high end for a response far below the control.
